Here are results for 5 compounds from US5807983A, “GNRH antagonist betides” (The Salk Institute for Biological Studies, priority 1996, dated 1998).

SMILES strings stand for the structures.

For the experiment, the system named is ovulation in mature female Sprague-Dawley rats. The experiment in a line: standard in vivo rat anti-ovulation test. To be noted: injected in bacteriostatic water at about noon on the day of proestrus. How it is done: The betide is assayed in vivo to determine its effectiveness to prevent ovulation in female rats. Inthis test, a specified number of mature female Sprague-Dawley rats, e.g. five to ten, each having a body weight from 225 to 250 grams, are injected with a specified microgram dosage of the betide in bacteriostatic water at about noon on the day of proestrus. Proestrus is the […]. A separate female rat group is used as a control to which the peptide is not administered. Each of the control female rats ovulates on the evening of proestrus; the number of the rats treated which ovulate is recorded.

`CC(=O)Nc1ccc(C[C@H](NC(=O)[C@H](CO)NC(=O)C(NC(=O)c2cccnc2)NC(=O)[C@@H](Cc2ccc(Cl)cc2)NC(=O)[C@@H](Cc2ccc3ccccc3c2)NC(C)=O)C(=O)N[C@H](Cc2ccc(NC(C)=O)cc2)C(=O)N[C@@H](CC(C)C)C(=O)N[C@@H](CCCCNC(C)C)C(=O)N2CCC[C@H]2C(=O)N[C@H](C)C(N)=O)cc1` (single isomer, unassigned) [Betide No. 1 isomer (1), Ac-D-2Nal-(4Cl)D-Phe-γ-(3-pyridyl)amidoGly-Ser-Aph(acetyl)-D-Aph(acetyl)-Leu-Lys(isopropyl)-Pro-D-Ala-NH2]: the “anti-ovulatory activity: rats ovulating out of rats treated” value (shortened to “anti-ovulatory activity”) is on record as “all 3 rats ovulate” (dosage 1 μg) and 0 out of 7 (dosage 2.5 μg). As to `CC(=O)Nc1ccc(C[C@H](NC(=O)[C@H](CO)NC(=O)C(NC(=O)c2cccnc2)NC(=O)[C@@H](Cc2ccc(Cl)cc2)NC(=O)[C@@H](Cc2ccc3ccccc3c2)NC(C)=O)C(=O)N[C@H](Cc2ccc(NC(C)=O)cc2)C(=O)N[C@@H](CC(C)C)C(=O)N[C@@H](CCCCNC(C)C)C(=O)N2CCC[C@H]2C(=O)N[C@H](C)C(N)=O)cc1` (single isomer, unassigned) [Betide No. 1 isomer (2), Ac-D-2Nal-(4Cl)D-Phe-γ-(3-pyridyl)amidoGly-Ser-Aph(acetyl)-D-Aph(acetyl)-Leu-Lys(isopropyl)-Pro-D-Ala-NH2], the “anti-ovulatory activity” value by setting is: (dosage 0.5 μg) 3 out of 4; (dosage 1 μg) 6 out of 14; (dosage 2.5 μg) 0 out of 5. For the compound `CC(=O)Nc1ccc(C[C@H](NC(=O)C(NC(=O)[C@@H](Cc2cccnc2)NC(=O)[C@@H](Cc2ccc(Cl)cc2)NC(=O)[C@@H](Cc2ccc3ccccc3c2)NC(C)=O)N(C)C=O)C(=O)N[C@H](Cc2ccc(NC(C)=O)cc2)C(=O)N[C@@H](CC(C)C)C(=O)N[C@@H](CCCCNC(C)C)C(=O)N2CCC[C@H]2C(=O)N[C@H](C)C(N)=O)cc1` (single isomer, unassigned) [Betide No. 2 one isomer, Ac-D-2Nal-D-4Cpa-D-3Pal-D/L-(methyl,formyl)aminoGly-Aph(Ac)-D-Aph(Ac)-Leu- Lys(isopropyl)-Pro-D-Ala-NH2], for the setting “dosage 2.5 μg”, the “anti-ovulatory activity” value is on record as 5 out of 8. Still for that read-out and setting: next, `CC(=O)Nc1ccc(C[C@H](NC(=O)C(NC(=O)[C@@H](Cc2cccnc2)NC(=O)[C@@H](Cc2ccc(Cl)cc2)NC(=O)[C@@H](Cc2ccc3ccccc3c2)NC(C)=O)N(C)C=O)C(=O)N[C@H](Cc2ccc(NC(C)=O)cc2)C(=O)N[C@@H](CC(C)C)C(=O)N[C@@H](CCCCNC(C)C)C(=O)N2CCC[C@H]2C(=O)N[C@H](C)C(N)=O)cc1` (single isomer, unassigned) [Betide No. 2 other distereomer, Ac-D-2Nal-D-4Cpa-D-3Pal-D/L-(methyl,formyl)aminoGly-Aph(Ac)-D-Aph(Ac)-Leu- Lys(isopropyl)-Pro-D-Ala-NH2]: 8 out of 8. Regarding `CC(=O)Nc1ccc(C[C@H](NC(=O)C(NC(=O)CO)NC(=O)[C@@H](Cc2cccnc2)NC(=O)[C@@H](Cc2ccc(Cl)cc2)NC(=O)[C@@H](Cc2ccc3ccccc3c2)NC(C)=O)C(=O)N[C@H](Cc2ccc(NC(C)=O)cc2)C(=O)N[C@@H](CC(C)C)C(=O)N[C@@H](CCCCNC(C)C)C(=O)N2CCC[C@H]2C(=O)N[C@H](C)C(N)=O)cc1` (single isomer, unassigned) [Betide No. 2A one of the isomers, Ac-D-2Nal-D-4Cpa-D-3Pal-D/L-Agl(HO-Ac)Aph(Ac)-D-Aph(Ac)-Leu-Lys(isopropyl)-Pro-D-Ala-NH2], the “anti-ovulatory activity” value (dosage 5 μg) is listed as 2 out of 8.
